Assay results: patent US7084301B2 (Ranbaxy Laboratories Limited, priority 2003, dated 2006)

Key:
[1] = biological target: T1, rat α1D-adrenoceptor (aorta) (Rattus norvegicus, UniProt P23944); experiment: In-vitro functional study, agonist-induced contractile response on isolated rat aorta; assay type: biochemical
T1 sequence (P23944 1-561): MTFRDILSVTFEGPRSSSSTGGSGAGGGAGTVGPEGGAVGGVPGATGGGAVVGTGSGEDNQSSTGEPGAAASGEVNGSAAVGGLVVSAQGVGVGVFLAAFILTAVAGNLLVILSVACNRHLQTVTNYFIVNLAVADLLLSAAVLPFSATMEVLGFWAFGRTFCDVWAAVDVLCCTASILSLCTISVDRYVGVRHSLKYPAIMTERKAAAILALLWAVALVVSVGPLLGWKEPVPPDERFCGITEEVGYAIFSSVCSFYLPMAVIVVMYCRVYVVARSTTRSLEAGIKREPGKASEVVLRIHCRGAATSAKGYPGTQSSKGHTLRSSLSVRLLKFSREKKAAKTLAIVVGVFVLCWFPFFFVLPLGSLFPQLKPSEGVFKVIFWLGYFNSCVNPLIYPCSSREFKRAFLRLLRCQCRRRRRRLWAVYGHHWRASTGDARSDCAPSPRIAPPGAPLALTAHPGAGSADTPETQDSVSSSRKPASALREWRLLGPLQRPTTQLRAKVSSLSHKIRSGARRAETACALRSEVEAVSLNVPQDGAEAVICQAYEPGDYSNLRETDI
Method: Aorta, prostate and spleen tissues were isolated from urethane anaesthetized (1.5 gm/kg) male wistar rats. Isolated tissues were mounted in organ bath containing Krebs Henseleit buffer of following compostion (mM): NaCl 118; KCl 4.7; CaCl2 2.5; MgSO4.7H2O 1.2; NaHCO3 25; KH2PO4 1.2; glucose 11.5. Buffer was maintained at 37° C. and aerated with a mixture of 95% O2 and 5% CO2. A resting tension of 2 g (aorta) or 1 g (spleen and prostate) was applied to tissues. Contractile response was monitored using a force displacement transducer and recorded on chart recorders. Tissues were allowed to equilibrate for 2 hours. At the end of equilibration period, concentration response curves to norepinephrine (aorta) and phenylepinephrine (spleen and prostate) were obtained in absence and presence of tested compound (at concentrations of […]). Antagonist affinities were calculated and expressed as pKB vales in Table II.
To compare the differences in pKB at the α1-arenrenoceptor subtypes one-way ANOVA followed by Dunett ‘t’ test was applied. A p<0.05 was considered statistically significant.

5-HT1A receptors = biological target: T2, 5-HT1A receptors (Homo sapiens, UniProt P08908); conditions: reported, J. Med. Chem. 2000; cited from earlier work
T2 sequence (P08908 1-422): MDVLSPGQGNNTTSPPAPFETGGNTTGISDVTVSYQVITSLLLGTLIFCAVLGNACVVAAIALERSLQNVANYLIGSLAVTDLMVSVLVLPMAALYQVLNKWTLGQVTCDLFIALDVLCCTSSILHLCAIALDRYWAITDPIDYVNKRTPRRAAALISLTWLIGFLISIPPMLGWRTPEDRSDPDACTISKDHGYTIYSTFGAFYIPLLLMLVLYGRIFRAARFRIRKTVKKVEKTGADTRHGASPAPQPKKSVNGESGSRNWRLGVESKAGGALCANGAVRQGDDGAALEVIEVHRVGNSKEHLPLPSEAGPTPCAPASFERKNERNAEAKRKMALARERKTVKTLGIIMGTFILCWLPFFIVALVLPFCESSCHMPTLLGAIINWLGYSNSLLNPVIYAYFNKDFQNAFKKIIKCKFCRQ

D-3 receptors = D-3 receptors (Homo sapiens, UniProt P35462); conditions: reported, J. Med. Chem. 2000; cited from earlier work
Chain of D-3 receptors (P35462 whole entry): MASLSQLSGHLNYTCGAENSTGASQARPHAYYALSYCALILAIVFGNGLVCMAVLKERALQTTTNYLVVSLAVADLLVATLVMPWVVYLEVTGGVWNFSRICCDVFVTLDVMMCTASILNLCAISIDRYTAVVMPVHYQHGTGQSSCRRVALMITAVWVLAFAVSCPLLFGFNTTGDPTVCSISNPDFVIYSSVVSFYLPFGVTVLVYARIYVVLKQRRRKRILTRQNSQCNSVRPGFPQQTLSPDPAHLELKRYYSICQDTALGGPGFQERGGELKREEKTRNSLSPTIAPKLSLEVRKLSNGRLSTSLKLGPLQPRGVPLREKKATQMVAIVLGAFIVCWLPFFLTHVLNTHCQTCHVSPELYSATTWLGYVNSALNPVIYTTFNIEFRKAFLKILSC

CCOc1ccccc1OCCN[C@H](C)Cc1ccc(O)c(S(N)(=O)=O)c1 [Formula I, R (−)-5-[2-[[2-(2-ethoxyphenoxy)ethyl]amino]propyl]-2-hydroxybenzenesulfonamide]
Kb [1]: 5.89 pM

CCOc1ccccc1OCCNC(C)Cc1ccc(OC)c(S(N)(=O)=O)c1 (single isomer, unassigned; (-)) [Tamsulosin, (−) isomer of 5-[2-[2-(2-ethoxyphenoxy)ethylamino]-2-methylethyl]-2-methoxybenzene sulfonamide, reference compound]
affinity for 5-HT1A receptors (5-HT1A receptors): subnanomolar affinity
affinity for D-3 receptors (D-3 receptors): subnanomolar affinity
